Assay results as given in patent US10273226B2, “Pyrazolyl-heteroarylamides as pesticides” (Bayer Animal Health GmbH, priority 2014, dated 2019).

What follows are compounds tested on Myzus persicae (assay: Myzus persicae spray test). Details: application rate 100 g/ha; after 6 days.
Type: in vivo
Summary of the method: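 Chinese cabbage leaf discs infested with all stages of green peach aphid were sprayed with compound formulated in solvent and water containing 1000 ppm emulsifier. Percent kill was assessed after 6 days, where 100% means all aphids dead and 0% none dead.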

SMILES	efficacy
Cc1ccc(-c2cnn(-c3c(C(F)(F)F)c(C(F)(F)C(F)(F)F)nn3C)c2)cc1NC(=O)c1ccncc1 [Example 1-040]	100%

The compounds below were run on Amblyomma hebraeum (assay: Amblyomma hebraeum test (tick nymphs, immersion)). Details: application rate 100 ppm; tick nymphs immersed one minute; after 42 days.
Type: in vivo
Method: (§1) Solvent: dimethyl sulphoxide
To produce an appropriate active ingredient formulation, 10 mg of active ingredient are mixed with 0.5 ml of dimethyl sulphoxide, and the concentrate is diluted with water to the desired concentration.
Tick nymphs (Amblyomma hebraeum) are placed into perforated plastic cups and immersed in the desired concentration for one minute. The ticks are transferred on filter paper into a Petri dish and stored in a climate-controlled cabinet.
After 42 days, the kill in % is determined. 100% means that all of the ticks have been killed; 0% means that none of the ticks have been killed.

SMILES	efficacy (kill in %)
Cc1ccc(-c2cnn(-c3c(C(F)(F)F)c(C(F)(F)C(F)(F)F)nn3C)c2)cc1NC(=O)c1ccncc1 [Example 1-040]	100%
Cn1nc(C(F)(F)C(F)(F)F)c(C(F)(F)F)c1-n1cc(-c2ccc(Cl)c(NC(=O)c3ccncc3)c2)cn1 [Example 1-024]	100%
Cn1nc(C(F)(F)C(F)(F)F)c(C(F)(F)F)c1-n1cc(-c2ccc(Cl)c(NC(=O)c3ccc(F)cc3)c2)cn1 [Example 1-022]	100%
Cn1nc(C(F)(F)C(F)(F)F)c(C(F)(F)F)c1-n1cc(-c2ccc(F)c(NC(=O)c3ccc(C#N)cc3)c2)cn1 [Example 1-088]	100%

The compounds below were run on Boophilus microplus Parkhurst strain, SP-resistant (assay: Boophilus microplus dip test). Details: application rate 100 ppm, assessed after 7 days.
Type: in vivo
Method: Boophilus microplus—Dip Test
Test animals: cattle ticks (Boophilus microplus) Parkhurst strain, SP-resistant
as §1
10 mg of active ingredient are dissolved in 0.5 ml of dimethyl sulphoxide. For the purpose of producing a suitable formulation, the active ingredient solution is diluted with water to the concentration desired in each case.
This active ingredient formulation is pipetted into tubes. 8-10 adult engorged female cattle ticks (Boophilus microplus) are transferred into a further tube with holes. The tube is immersed into the active ingredient formulation, and all the ticks are completely wetted. After the liquid has run out, the ticks are transferred on filter discs into plastic dishes and stored in a climate-controlled room.
Efficacy is assessed after 7 days by laying of fertile eggs. Eggs which are not visibly fertile are stored in a climate-controlled cabinet until the larvae hatch after about 42 days. An efficacy of 100% means that none of the ticks has laid any fertile eggs; 0% means that all the eggs are fertile.

SMILES	efficacy (laying of fertile eggs)
Cc1ccc(-c2cnn(-c3c(C(F)(F)F)c(C(F)(F)C(F)(F)F)nn3C)c2)cc1NC(=O)c1ccncc1 [Example 1-040]	100%
Cn1nc(C(F)(F)C(F)(F)F)c(C(F)(F)F)c1-n1cc(-c2ccc(Cl)c(NC(=O)c3ccncc3)c2)cn1 [Example 1-024]	100%
Cn1nc(C(F)(F)C(F)(F)F)c(C(F)(F)F)c1-n1cc(-c2ccc(Cl)c(NC(=O)c3ccc(F)cc3)c2)cn1 [Example 1-022]	100%
Cn1nc(C(F)(F)C(F)(F)F)c(C(F)(F)F)c1-n1cc(-c2ccc(F)c(NC(=O)c3ccc(C#N)cc3)c2)cn1 [Example 1-088]	100%

Each compound was assayed on Tetranychus urticae (assay: Tetranychus urticae spray test, OP-resistant). Details: application rate 100 g/ha; after 6 days.
Type: in vivo
Summary of the method: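 Bean leaf discs (Phaseolus vulgaris) carrying all stages of OP-resistant mites are sprayed with compound formulated in solvent and emulsifier-containing water. Efficacy (% mites killed) is scored after 6 days.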

SMILES	efficacy
Cc1ccc(-c2cnn(-c3c(C(F)(F)F)c(C(F)(F)C(F)(F)F)nn3C)c2)cc1NC(=O)c1ccncc1 [Example 1-040]	100%
Cn1nc(C(F)(F)C(F)(F)F)c(C(F)(F)F)c1-n1cc(-c2ccc(Cl)c(NC(=O)c3ccncc3)c2)cn1 [Example 1-024]	100%
Cn1nc(C(F)(F)C(F)(F)F)c(C(F)(F)F)c1-n1cc(-c2ccc(Cl)c(NC(=O)c3ccc(F)cc3)c2)cn1 [Example 1-022]	100%
Cn1nc(C(F)(F)C(F)(F)F)c(C(F)(F)F)c1-n1cc(-c2ccc(F)c(NC(=O)c3ccc(C#N)cc3)c2)cn1 [Example 1-088]	100%

These compounds were tested on Musca domestica (assay: Musca domestica test). Details: application rate 100 ppm; adult houseflies; after 2 days.
Type: in vivo
Summary of the method: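 Feeding exposure: adult Musca domestica, 10 per vessel, given a sponge with sugar solution and test formulation at the desired concentration; % mortality determined on day 2.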

SMILES	efficacy (kill in %)
Cc1ccc(-c2cnn(-c3c(C(F)(F)F)c(C(F)(F)C(F)(F)F)nn3C)c2)cc1NC(=O)c1ccncc1 [Example 1-040]	100%
Cn1nc(C(F)(F)C(F)(F)F)c(C(F)(F)F)c1-n1cc(-c2ccc(Cl)c(NC(=O)c3ccncc3)c2)cn1 [Example 1-024]	100%

What follows are compounds tested on Lucilia cuprina (assay: Lucilia cuprina test). Details: application rate 100 ppm; L1 larvae; after 2 days.
Type: in vivo
Summary of the method: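 About 20 L1 larvae placed in vessels with minced horsemeat treated with compound (DMSO concentrate diluted in water) at the desired concentration. Kill (%) scored after 2 days; 100% means all larvae dead, 0% none.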

SMILES	efficacy (kill in %)
Cc1ccc(-c2cnn(-c3c(C(F)(F)F)c(C(F)(F)C(F)(F)F)nn3C)c2)cc1NC(=O)c1ccncc1 [Example 1-040]	100%
Cn1nc(C(F)(F)C(F)(F)F)c(C(F)(F)F)c1-n1cc(-c2ccc(Cl)c(NC(=O)c3ccncc3)c2)cn1 [Example 1-024]	100%
Cn1nc(C(F)(F)C(F)(F)F)c(C(F)(F)F)c1-n1cc(-c2ccc(Cl)c(NC(=O)c3ccc(F)cc3)c2)cn1 [Example 1-022]	100%
Cn1nc(C(F)(F)C(F)(F)F)c(C(F)(F)F)c1-n1cc(-c2ccc(F)c(NC(=O)c3ccc(C#N)cc3)c2)cn1 [Example 1-088]	100%

What follows are compounds tested on Spodoptera frugiperda (assay: Spodoptera frugiperda spray test). Details: application rate 100 g/ha; caterpillars; after 7 days.
Type: in vivo
Summary of the method: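 Maize leaf discs were sprayed with compound formulated in solvent plus water containing 1000 ppm emulsifier, dried, then infested with Spodoptera frugiperda caterpillars. Efficacy in % mortality was scored after 7 days (100% all killed, 0% none).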

SMILES	efficacy
Cc1ccc(-c2cnn(-c3c(C(F)(F)F)c(C(F)(F)C(F)(F)F)nn3C)c2)cc1NC(=O)c1ccncc1 [Example 1-040]	100%
Cn1nc(C(F)(F)C(F)(F)F)c(C(F)(F)F)c1-n1cc(-c2ccc(Cl)c(NC(=O)c3ccncc3)c2)cn1 [Example 1-024]	100%
Cn1nc(C(F)(F)C(F)(F)F)c(C(F)(F)F)c1-n1cc(-c2ccc(Cl)c(NC(=O)c3ccc(F)cc3)c2)cn1 [Example 1-022]	100%
Cn1nc(C(F)(F)C(F)(F)F)c(C(F)(F)F)c1-n1cc(-c2ccc(F)c(NC(=O)c3ccc(C#N)cc3)c2)cn1 [Example 1-088]	100%

These compounds were tested on Phaedon cochleariae (assay: Phaedon cochleariae spray test). Details: application rate 100 g/ha; larvae; after 7 days.
Type: in vivo
Summary of the method: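 Chinese cabbage leaf discs were sprayed with the compound formulated in water containing 1000 ppm emulsifier. After drying, they were infested with mustard beetle larvae. Efficacy was scored as % larvae killed after 7 days (100% = all dead, 0% = none).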

SMILES	efficacy
Cc1ccc(-c2cnn(-c3c(C(F)(F)F)c(C(F)(F)C(F)(F)F)nn3C)c2)cc1NC(=O)c1ccncc1 [Example 1-040]	100%
Cn1nc(C(F)(F)C(F)(F)F)c(C(F)(F)F)c1-n1cc(-c2ccc(Cl)c(NC(=O)c3ccncc3)c2)cn1 [Example 1-024]	100%
Cn1nc(C(F)(F)C(F)(F)F)c(C(F)(F)F)c1-n1cc(-c2ccc(Cl)c(NC(=O)c3ccc(F)cc3)c2)cn1 [Example 1-022]	100%
Cn1nc(C(F)(F)C(F)(F)F)c(C(F)(F)F)c1-n1cc(-c2ccc(F)c(NC(=O)c3ccc(C#N)cc3)c2)cn1 [Example 1-088]	100%

These compounds were tested on Boophilus microplus (assay: Boophilus microplus injection test). Details: application rate 20 μg/animal; injection into abdomen; assessed after 7 days.
Type: in vivo
Summary of the method: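 Read-out is % efficacy from fertile egg laying at 7 days: 100% means no tick laid fertile eggs, 0% means all eggs fertile. Each of 5 engorged adult females received 1 μl of DMSO test solution injected abdominally.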

SMILES	efficacy (laying of fertile eggs)
Cc1ccc(-c2cnn(-c3c(C(F)(F)F)c(C(F)(F)C(F)(F)F)nn3C)c2)cc1NC(=O)c1ccncc1 [Example 1-040]	100%
Cn1nc(C(F)(F)C(F)(F)F)c(C(F)(F)F)c1-n1cc(-c2ccc(Cl)c(NC(=O)c3ccncc3)c2)cn1 [Example 1-024]	100%
Cn1nc(C(F)(F)C(F)(F)F)c(C(F)(F)F)c1-n1cc(-c2ccc(Cl)c(NC(=O)c3ccc(F)cc3)c2)cn1 [Example 1-022]	100%
Cn1nc(C(F)(F)C(F)(F)F)c(C(F)(F)F)c1-n1cc(-c2ccc(F)c(NC(=O)c3ccc(C#N)cc3)c2)cn1 [Example 1-088]	100%

What follows are compounds tested on Rhipicephalus sanguineus (assay: Rhipicephalus sanguineus in vitro contact test with adult brown dog ticks). Details: application rate 5 μg/cm^2 (500 g/ha); after 48 h; ticks dead or moribund.
Type: in vivo
Summary of the method: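 Test tubes (25 ml) were coated by dissolving active ingredient in acetone p.a., diluting to the required concentration, and spreading 250 μl over the inner walls and base on an orbital shaker at 30 rpm for 2 h. Once dry, 5-10 adult Rhipicephalus sanguineus were added, and tubes were capped with perforated lids and kept horizontal in darkness at room temperature. At 48 h, ticks were knocked down and heated at 45-50° C. for up to 5 min. Those unable to climb away were counted dead or moribund, and efficacy ran from 0% to 100%.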

SMILES	efficacy
Cc1ccc(-c2cnn(-c3c(C(F)(F)F)c(C(F)(F)C(F)(F)F)nn3C)c2)cc1NC(=O)c1ccncc1 [Example 1-040]	100%
Cn1nc(C(F)(F)C(F)(F)F)c(C(F)(F)F)c1-n1cc(-c2ccc(Cl)c(NC(=O)c3ccncc3)c2)cn1 [Example 1-024]	100%
Cn1nc(C(F)(F)C(F)(F)F)c(C(F)(F)F)c1-n1cc(-c2ccc(Cl)c(NC(=O)c3ccc(F)cc3)c2)cn1 [Example 1-022]	100%
Cn1nc(C(F)(F)C(F)(F)F)c(C(F)(F)F)c1-n1cc(-c2ccc(F)c(NC(=O)c3ccc(C#N)cc3)c2)cn1 [Example 1-088]	100%

What follows are compounds tested on Ctenocephalides felis (assay: Ctenocephalides felis oral test). Details: application rate 100 ppm in citrated cattle blood; after 2 days.
Type: in vivo
Summary of the method: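 Oral exposure of unfed adult fleas, roughly 20 per chamber, to compound-spiked citrated cattle blood taken up across a parafilm membrane. Read-out is percent kill at 2 days, where 100% means every flea dead.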

SMILES	efficacy (kill in %)
Cc1ccc(-c2cnn(-c3c(C(F)(F)F)c(C(F)(F)C(F)(F)F)nn3C)c2)cc1NC(=O)c1ccncc1 [Example 1-040]	100%
Cn1nc(C(F)(F)C(F)(F)F)c(C(F)(F)F)c1-n1cc(-c2ccc(Cl)c(NC(=O)c3ccncc3)c2)cn1 [Example 1-024]	100%
Cn1nc(C(F)(F)C(F)(F)F)c(C(F)(F)F)c1-n1cc(-c2ccc(Cl)c(NC(=O)c3ccc(F)cc3)c2)cn1 [Example 1-022]	100%
Cn1nc(C(F)(F)C(F)(F)F)c(C(F)(F)F)c1-n1cc(-c2ccc(F)c(NC(=O)c3ccc(C#N)cc3)c2)cn1 [Example 1-088]	100%

These compounds were tested on Ctenocephalides felis (assay: Ctenocephalides felis in vitro contact test with adult cat fleas). Details: application rate 5 μg/cm^2 (500 g/ha); after 48 h; fleas dead or moribund.
Type: in vivo
Summary of the method: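 Test tubes were coated with 250 μl acetone solution of compound, giving 5 μg/cm^2 at 900 ppm, then dried and stocked with 5-10 adult cat fleas. After 48 h at room temperature and ambient humidity, dead or moribund fleas were counted; efficacy given as % (100% = all dead or moribund).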

SMILES	efficacy
Cc1ccc(-c2cnn(-c3c(C(F)(F)F)c(C(F)(F)C(F)(F)F)nn3C)c2)cc1NC(=O)c1ccncc1 [Example 1-040]	100%
Cn1nc(C(F)(F)C(F)(F)F)c(C(F)(F)F)c1-n1cc(-c2ccc(Cl)c(NC(=O)c3ccncc3)c2)cn1 [Example 1-024]	100%
Cn1nc(C(F)(F)C(F)(F)F)c(C(F)(F)F)c1-n1cc(-c2ccc(Cl)c(NC(=O)c3ccc(F)cc3)c2)cn1 [Example 1-022]	100%
Cn1nc(C(F)(F)C(F)(F)F)c(C(F)(F)F)c1-n1cc(-c2ccc(F)c(NC(=O)c3ccc(C#N)cc3)c2)cn1 [Example 1-088]	100%
